Measurements reported in ChEMBL document CHEMBL1158514, “Molecular design of small organic molecules based on structural information for a conformationally constrained peptide that binds to G-CSF receptor” (Bioorg Med Chem Lett, 2010).

Molecular target: T1, Granulocyte colony-stimulating factor receptor (Homo sapiens, UniProt Q99062)
T1 sequence (Q99062 whole entry): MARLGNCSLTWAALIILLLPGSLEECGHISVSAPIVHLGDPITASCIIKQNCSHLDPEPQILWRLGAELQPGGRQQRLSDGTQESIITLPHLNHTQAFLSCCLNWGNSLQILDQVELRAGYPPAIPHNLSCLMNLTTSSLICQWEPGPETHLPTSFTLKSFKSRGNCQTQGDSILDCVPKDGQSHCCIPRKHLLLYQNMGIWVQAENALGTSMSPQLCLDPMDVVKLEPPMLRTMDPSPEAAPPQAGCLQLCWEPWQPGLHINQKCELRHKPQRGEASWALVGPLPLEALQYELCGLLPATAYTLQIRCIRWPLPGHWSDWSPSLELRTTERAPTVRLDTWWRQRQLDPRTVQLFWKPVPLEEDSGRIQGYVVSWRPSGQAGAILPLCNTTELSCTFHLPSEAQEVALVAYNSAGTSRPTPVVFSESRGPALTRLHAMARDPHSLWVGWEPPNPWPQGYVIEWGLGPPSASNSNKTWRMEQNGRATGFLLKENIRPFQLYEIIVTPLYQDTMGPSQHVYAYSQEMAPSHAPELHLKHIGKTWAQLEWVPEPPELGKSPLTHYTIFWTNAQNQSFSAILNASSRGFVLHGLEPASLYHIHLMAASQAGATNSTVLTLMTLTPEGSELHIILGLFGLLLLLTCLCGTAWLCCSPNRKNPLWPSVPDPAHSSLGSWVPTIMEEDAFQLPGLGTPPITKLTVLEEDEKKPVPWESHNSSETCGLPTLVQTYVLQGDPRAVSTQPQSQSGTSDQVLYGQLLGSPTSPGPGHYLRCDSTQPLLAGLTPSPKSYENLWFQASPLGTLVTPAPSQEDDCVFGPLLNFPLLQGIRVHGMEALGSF
Assay: Binding affinity to granulocyte colony stimulating factor receptor by SPR biosensor technique; call rule not given here

Compound: CC(C)CCOc1cc(OCCCN)cc(-c2ccc(CCC(N)=O)c(CCC(=O)O)c2)c1
- Kd: Not Active

Compound: CC(C)CCOc1cc(CN(CCC(=O)O)c2cccc(CCC(N)=O)c2)cc(OCCCN)c1
- Kd (read-out: Kd): 47 µM

Compound: CC(C)CCOc1cc(CN(CCC(N)=O)c2cccc(CCC(=O)O)c2)cc(OCCCN)c1
- Kd: Not Active

Compound: CC(C)CCOc1cc(OCCCN)cc(-c2ccc(CCC(=O)O)c(CCC(N)=O)c2)c1
- Kd (read-out: Kd): 20 µM
